Results from US9345744B2, “Peptide-based collagen modulators for wound healing and tissue repair” (MUSC FOUNDATION FOR RESEARCH DEVELOPMENT, priority 2012, dated 2016).
“Also recorded” adds a separate entry of the source. Read-outs that look alike come from different tables or passages of the source.

What was measured:
[1] = test system: Sprague Dawley rats, latissimus dorsi muscle; test: Silicon wafer implant with exogenous ATP or apyrase, histology at 24 hours; type: in vivo, rat; details: for inflammatory infiltrate in the implant region: implant plus exogenous agent
Source text: FIG. 16. A composite panel of microscopy images taken from H&E stained sections of muscle tissue adjacent to the silicon implant. […] The other images in the panel are high magnification showing areas of high inflammation and necrosis bottom two panels and relatively low inflammation away from the implant site, upper right. The top right set of images is from the tissue adjacent to the implant that had also been treated with exogenous ATP. […] And that by modulating the ATP signal we can potentially modulate the initial inflammatory reaction.
15 male Sprague Dawley rats underwent unilateral implantation of silicon wafer implants. Three animals received implants only, three received implants plus exogenous ATP, three received implants plus exogenous apyrase, an enzyme that scavenges ATP, three underwent surgery alone without an implant, and three received a percutaneous injection of exogenous ATP into the latissimus dorsi muscle. The implants were harvested after 24 hours to evaluate the extent of inflammatory infiltrate and preservation of muscle.

HMVECs = test: ATP release from endothelial cells; type: cell-based, human
Description: FIG. 15. ATP is released from endothelial cells in response to low Ca^2+ and the inflammatory cytokine IL-6. HMVECs were treated for 5 hours with either nothing or IL-6 (0.01 ng/mL). After the 5 hr incubation, HBSS (w/Ca^2+ and Mg^2+)—25 mM HEPES was added to one set of controls (“Control”) and the IL-6 treated cells for 5 min. To the other set of control wells, HBSS (w/o Ca^2+ and Mg^2+)—25 mM HEPES was added as a positive control for Cx43 hemichannel-mediated ATP release (“Low Ca^2+”). The error bars represent the standard error for replicates within the same experiment.
The possibility that Cx43 acts as a mediator of inflammation through hemichannel mediated release of ATP was further examined Studies on ATP release in the HeLa cell models, as well as primary human microvascular endothelial cells (HMVECs), were performed. […] However, the inventors also observed that, in preliminary experiments, ATP released in response to low Ca^2+ was not inhibited by treatment with mefloquine, a commonly used connexin channel blocker. Endothelial cells may also release ATP through vesicular exocytotic mechanisms in a Ca^2+ dependent manner (Bodin and Burnstock, 2001; McDonald et al., 2010). Pannexin channels, which can also mediate ATP release, are similarly sensitive to mefloquine (Lohman et al., 2012; Bodin et al, 2001).

[2] = test system: neonatal rat cardiac fibroblast cells; test: Western blot of collagen type I in conditioned media and cell lysates of peptide-treated neonatal cardiac fibroblasts; type: cell-based
Source text: Isolation and treatment of Neonatal Cardiac Fibroblasts with Cx43 based peptides (peptides used included ACT1, JM1, JM2, Antenapedia [ANT], reverse ACT1 [Rev], poly Arginine [poly r]). Neonatal cardiac fibroblasts (NHFs) were isolated from 3-4 day old rat hearts by collagenase digestion (100 U/mL) and differential attachment as previously described (Borg et al., 1984). All cells were maintained in Dulbecco's Modified Eagle Medium (DMEM) supplemented with 10% Fetal Bovine Serum and 100 U/mL penicillin G and 100 μg/mL streptomycin and used prior to passage four. For experiments, 40,000 NHFs were plated into the wells of a 24-well tissue culture plate and grown for 24-48 hours. On the day of treatment, media was removed from each well and replaced with fresh media containing 50 μg/mL L-ascorbic acid-2-phosphate; Sigma Chemical Co., St. Louis, Mo.). The appropriate volume of each peptide (resuspended in sterile, deionized 18 MΩ resistivity water) was added to achieve the desired final concentration (30, 90, 180 μM peptide concentrations were tested). Culture plates were incubated overnight in a 37° C. incubator with 5% CO2.
Conditioned culture media was collected from each well and stored at −20° C. for analysis of soluble collagen. Cellular protein, including insoluble collagen and collagen still within the NHFs, were isolated by adding 100-200 μL of cell lysis buffer (0.01 M Tris, pH 7.4, 0.001 M Sodium Orthovanadate, 1% sodium dodecylsulfate [SDS]) to each well and incubating 10 minutes at room temperature. Prior to addition, cell lysis buffer was warmed to facilitate solubilzation of SDS and 100 μL of Halt protease inhibitor (Pierce Biotechnology, Rockford, Ill.) was added per 10 mL buffer to be used. […] Protein concentrations of cell lysates were determined using a Micro BCA assay (Pierce). […] The presence of collagen was determined by probing the membranes with a rabbit anti-mouse collagen type I antibody (MD Biosciences) at 1:20,000 dilution in blocking buffer (5% milk in Tris-buffered saline) followed by a goat anti-rabbit IgG horseradish peroxidase conjugated antibody at 1:100,000 (Southern Biotech Associates) and detection with Pierce SuperSignal Femto West detection reagent (Pierce).
To assess the activity of JM1 and JM2 peptides with respect to collagen production and their potential in mediating wound healing, cardiac fibroblasts were treated with these two peptides and their effectiveness compared to that for the previous described Cx43 peptide ACT1. NHFs were treated with various concentrations of JM1, JM2, ACT1, and ANT (Antenapedia) peptides, vehicle (water) or left untreated and the production of collagen both in the culture media and cell-associated collagen assessed by western blotting. […]

[3] = test system: implants in skeletal muscle; test: Inflammatory infiltrate at implants, myeloperoxidase stain; type: in vivo; details: 24 hour time point
Source text: In attempting to quantify the neutrophil infiltrate using a myeloperoxidase stain, the inventors observed that some of the cells stained darker than others. Upon further investigation, these cells were not neutrophils as but rather were macrophages.

Cx43 hemichannel = target: T1, Cx43 hemichannel (Homo sapiens, UniProt P17302); details: Rhett et al., 2011; cited from earlier work
T1 construct: expressed in transfected cells

[4] = test system: myocytes from neonatal rats; details: 30 μM, 5 days; cited from earlier work
NIH-3T3 cells = details: 30 μM, cited from earlier work
[5] = test system: neonatal mouse skin wound; details: cited from earlier work
adult mouse skin wound = details: cited from earlier work
rat skin wound = details: cited from earlier work
CD1 mice, LV cryo-injury = details: cited from earlier work
adult rat brain injury = details: 100 μM in 2% collagen vehicle; cited from earlier work
SD rat cornea = details: cited from earlier work
ARPE19 cell = details: cited from earlier work
[6] = cited from earlier work
[7] = test system: C57BL/6 mouse, laser-induced CNV; details: cited from earlier work
[8] = test system: Sprague-Dawley rats with silicone disks; details: cited from earlier work
[9] = test system: U87 MG glioblastoma cells; details: cited from earlier work
C6 glioma cell line = details: cited from earlier work

T1 sequence (P17302 whole entry): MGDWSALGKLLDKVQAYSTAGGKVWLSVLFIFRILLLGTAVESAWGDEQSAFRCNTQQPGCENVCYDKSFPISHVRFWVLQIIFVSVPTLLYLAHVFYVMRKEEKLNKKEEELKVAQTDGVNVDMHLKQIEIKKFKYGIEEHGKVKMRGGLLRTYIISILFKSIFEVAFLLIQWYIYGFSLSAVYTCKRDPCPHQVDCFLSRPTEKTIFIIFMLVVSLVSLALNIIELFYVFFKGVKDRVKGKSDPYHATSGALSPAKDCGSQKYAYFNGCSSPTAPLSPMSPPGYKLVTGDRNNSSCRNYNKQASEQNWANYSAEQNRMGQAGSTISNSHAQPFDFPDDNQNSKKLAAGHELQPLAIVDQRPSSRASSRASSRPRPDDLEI

Compound: Nc1ncnc2c1ncn2[C@@H]1O[C@H](COP(=O)(O)OP(=O)(O)OP(=O)(O)O)[C@@H](O)[C@H]1O [ATP]
- inflammatory infiltrate in the implant region [1]: profound increase in inflammatory infiltrate
- inflammatory infiltrate in skeletal muscle ([1]; percutaneous injection, no implant): more inflammatory infiltrate than the surgery alone; also recorded: causes significant inflammation

Compound: OC(c1cc(C(F)(F)F)nc2c(C(F)(F)F)cccc12)C1CCCCN1 (stereo not shown) [mefloquine]
- ATP released in response to low Ca2+ (HMVECs; treatment with blocker, preliminary experiments): not inhibited

Compound: IL-6: the inflammatory cytokine IL-6
- ATP release (HMVECs; IL-6 0.01 ng/mL, 5 hours): increased ATP release

Compound: RQPKIWFPNRRKPWKKRPRPDDLEI [ACT1, Cx43 carboxyl-terminal peptide incorporating aas 373 to 382 of Cx43, U.S. Pat. No. 7,786,074]
- secretion/production of mature, fully processed type I collagen (conditioned media) ([2]; 30, 90, 180 μM, overnight): decreased levels of fully processed collagen I a1 chains; also recorded: dose-dependent reduction
- higher molecular weight collagen species in cell lysate ([2]; ACT1, highest doses of JM1 and JM2): absence of higher molecular weight collagen species
- mature / processed type I collagen in NHF cell lysate ([2]; cell lysates, JM1, JM2 at maximum dose tested): slight decreases in processed collagen I a1 chains
- collagen synthesis, processing and secretion from fibroblasts ([2]; cultured fibroblasts, FIGS. 1 and 2): reduced collagen processing and secretion
- primary inflammatory infiltrate [3]: macrophages
- Cx43 hemichannel activity (Cx43 hemichannel): inhibits Cx43 hemichannel activity
- extent of Cx43 gap junction formation between myocytes [4]: greatly increased
- repopulation of scratch injury (NIH-3T3 cells; 24 hours): few cells repopulating the area
- proliferation of the cells (NIH-3T3 cells): reduced proliferation
- wound closure, inflammation, swelling ([5]; 60 μM in 20% pluronic gel, 48 hours): significantly more closed, less inflamed, less swollen
- wound appearance / scarring ([5]; 60 μM, 7 days): smoother and less scarred appearance
- closure, inflammation, healing and scarring of excisional injuries (adult mouse skin wound; 100 μM in 30% pluronic gel, 10-14 day time course): closed faster, were less inflamed in appearance, healed faster and scarred less
- scarring/overall appearance (adult mouse skin wound; 7 and 10 days post-wounding): significantly improved
- wound redness (adult mouse skin wound; 24 hr and 4 days post-wounding): significantly decreased
- wound size (adult mouse skin wound; 24 hr, 4, 7 and 10 days): significantly smaller in size
- scar area and scar tissue volume / scar size (rat skin wound; 150 μM peptide, 30 days): significantly (p<0.05) smaller
- wound closure rates (rat skin wound; versus the other 4 wounds): significantly faster closure rates
- LV diastolic and systolic function (CD1 mice, LV cryo-injury; 8 week time course): significant improvement
- scar uniformity (CD1 mice, LV cryo-injury; mouse, in vivo): significantly increased scar uniformity
- frequency and severity of arrhythmias (CD1 mice, LV cryo-injury; pacing and S1-S2 protocols): dramatically reduced
- NeuN immunolabeled neurons proximal to the HFM (adult rat brain injury): higher numbers
- density of GFAP-positive astrocytes adjacent the HFM (adult rat brain injury): much lower density
- corneal re-epithelialization (SD rat cornea; 24 hrs): re-epithelializing much faster than control corneas
- corneal re-epithelialization (SD rat cornea; 72 hrs): significantly greater re-epithelialization
- corneal closure and regeneration (SD rat cornea; rat, in vivo): faster closure and more complete corneal regeneration
- VEGF-dependent drop in TER (ARPE19 cell; pre-treatment with peptide): ameliorated the drop in TER; also recorded: blocked
- peptide in aqueous humor (anterior chamber) ([6]; 100 uM, corneal application, 20 and 40 minutes): detectable level
- peptide in vitreous humor (posterior chamber), Western blotting ([6]; 20 and 40 minutes): Lower levels of peptide could also be detected
- peptide in retinal pigment epithelial layer ([6]; corneal application): detectable in the retinal pigment epithelial layer
- CNV lesion size / injury spread ([7]; relative to PBS controls): significantly reduced; also recorded: reduced CNV injury spread
- retinal function (ERG) ([7]; relative to controls): improved retinal function
- neutrophil infiltration ([8]; capsulectomies days 1-28): attenuating neutrophil infiltration
- presence of contractile myofibroblasts ([8]; rat, in vivo): reducing the continued presence of contractile myofibroblasts
- type I collagen deposition around the implant ([8]; rat, in vivo): reducing type I collagen deposition around the implant
- vascularity of the capsule tissue ([8]; rat, in vivo): increasing vascularity of the capsule tissue
- motility across a porous membrane ([9]; Boyden chamber): significantly decreased
- aggregation [9]: higher degree of aggregation
- motility across a porous membrane (C6 glioma cell line; C6, Boyden chamber): significantly decreased
- adhesive properties (C6 glioma cell line; C6): did not change
- cell morphology (C6 glioma cell line; C6): altered morphology

Compound: VEGF
- TER (ARPE19 cell; VEGF alone, by 4 hours post-application): significantly (p<0.05) reduces TER; also recorded: rapid deterioration

Compound: apyrase
- inflammatory infiltrate in the implant region [1]: significantly reduced the inflammatory infiltrate; also recorded: marked decrease in inflammatory infiltrate
